Assay results from US4861788A, “Antibacterial 1-normon-2-yl-heterocyclic compounds” (Beecham Group plc, priority 1983, dated 1989).
Values after ≈ are worked out from the molar mass of the structure shown. Like-named read-outs stand apart in the source and are kept apart here.

Tests used:
[1] = test system: Neisseria catarrhalis 1502; assay: MIC against human bacteria in vitro (nutrient agar, chocolated horse blood); format: cell-based; details: human; Neisseria catarrhalis 1502; 18 hours at 37° C; read-out: MIC
Experimental: (§1) The activity of the normonyl derivaties of the Examples against various bacteria which are important in diseases of humans, was assayed in vitro using serial dilutions in nurient agar with 5% chocolated horse blood.

K. aerogenes A = assay: as above; format: cell-based; details: Klebsiella aerogenes; human; K. aerogenes A; 18 hours at 37° C; read-out: MIC
Experimental: as §1

Staph. aureus Russell = assay: as above; format: cell-based; details: Staphylococcus aureus; human; Staph. aureus Russell; 18 hours at 37° C; read-out: MIC
Experimental: as §1

[2] = test system: Pasteurella multocida 1633; assay: as above; format: cell-based; details: human; Pasteurella multocida 1633; 18 hours at 37° C; read-out: MIC
Experimental: as §1

E. coli NCTC 10418 = assay: as above; format: cell-based; details: Escherichia coli, NCTC10418; human; E. coli NCTC 10418; 18 hours at 37° C; read-out: MIC
Experimental: as §1

Strep. faecalis I = assay: as above; format: cell-based; details: Enterococcus faecalis; human; Strep. faecalis I; 18 hours at 37° C; read-out: MIC
Experimental: as §1

Staph. aureus Oxford [3] = assay: as above; format: cell-based; details: Staphylococcus aureus; human; Staph. aureus Oxford; 18 hours at 37° C; read-out: MIC
Experimental: as §1

E. coli ESS = assay: as above; format: cell-based; details: Escherichia coli; human; E. coli ESS; 18 hours at 37° C; read-out: MIC
Experimental: as §1

Sarcina lutea 8340 = assay: as above; format: cell-based; details: Micrococcus luteus; human; Sarcina lutea 8340; 18 hours at 37° C; read-out: MIC
Experimental: as §1

Bacillus subtilis 6633 = assay: as above; format: cell-based; details: human; Bacillus subtilis 6633; 18 hours at 37° C; read-out: MIC
Experimental: as §1

P. mirabilis 889 = assay: as above; format: cell-based; details: Proteus mirabilis; human; P. mirabilis 889; 18 hours at 37° C; read-out: MIC
Experimental: as §1

Staph. aureus W2827 = assay: as above; format: cell-based; details: Staphylococcus aureus; human; Staph. aureus W2827; 18 hours at 37° C; read-out: MIC
Experimental: as §1

[4] = test system: Ps. aeruginosa NCTC 10662; assay: as above; format: cell-based; details: Pseudomonas aeruginosa, NCTC10662; human; Ps. aeruginosa NCTC 10662; 18 hours at 37° C; read-out: MIC
Experimental: as §1

Strep. agalactiae 2788-B = assay: as above; format: cell-based; details: Streptococcus agalactiae; human; Strep. agalactiae 2788-B; 18 hours at 37° C; read-out: MIC
Experimental: as §1

Strep. spp. 64/848-C = assay: as above; format: cell-based; details: human; Strep. spp. 64/848-C; 18 hours at 37° C; read-out: MIC
Experimental: as §1

[5] = test system: Haemophilus influenzae Wy21; assay: as above; format: cell-based; details: human; Haemophilus influenzae Wy21; 18 hours at 37° C; read-out: MIC
Experimental: as §1

B. subtilis ATCC 6633 = assay: MIC against veterinary bacteria in vitro (Diagnostic Sensitivity Test Agar); details: Bacillus subtilis, ATCC6633, 18 h
Experimental: (§2) The activity of the normonyl derivatives of the Examples against various veterinarily important bacteria, was assayed in vitro using two-fold serial dilutions in Diagnostic Sensitivity Test Agar inoculated with 10^4 organisms.

M. hyopneumoniae NB12 = assay: MIC against Mycoplasma in vitro (Friis broth with agarose); format: cell-based; details: Mesomycoplasma hyopneumoniae
Staph. aureus Oxford [6] = assay: MIC against veterinary bacteria in vitro (Diagnostic Sensitivity Test Agar); details: Staphylococcus aureus, 18 h
Experimental: as §2

S. dublin S7 = assay: as above; details: Salmonella enterica, S7, 18 h
Experimental: as §2

M. hyorhinis ATCC 23234 = assay: MIC against Mycoplasma in vitro (Friis broth with agarose); format: cell-based; details: Mesomycoplasma hyorhinis, ATCC23234, 144 h; M. hyorhinis ATCC 23234; 6 days at 37° C; read-out: MIC
[7] = test system: M. hyopneumoniae PW/C/210; assay: as above; format: cell-based; details: Mesomycoplasma hyopneumoniae, 144 h; M. hyopneumoniae PW/C/210; 6 days at 37° C; read-out: MIC
Past. haemolytica PA5 = assay: MIC against veterinary bacteria in vitro (Diagnostic Sensitivity Test Agar); details: Mannheimia haemolytica, PA5, 18 h
Experimental: as §2

[8] = test system: Haemophilus influenzae Q1; assay: MIC against human bacteria in vitro (nutrient agar, chocolated horse blood); format: cell-based; details: human; Haemophilus influenzae Q1; 18 hours at 37° C; read-out: MIC
Experimental: as §1

[9] = test system: Corynebacterium xerosis 9755; assay: as above; format: cell-based; details: human; Corynebacterium xerosis 9755; 18 hours at 37° C; read-out: MIC
Experimental: as §1

[10] = test system: Strep. pyogenes R80/421-A; assay: as above; format: cell-based; details: Streptococcus pyogenes; human; Strep. pyogenes R80/421-A; 18 hours at 37° C; read-out: MIC
Experimental: as §1

Strep. pneumoniae CN33 = assay: as above; format: cell-based; details: Streptococcus pneumoniae; human; Strep. pneumoniae CN33; 18 hours at 37° C; read-out: MIC
Experimental: as §1

M. hyopneumoniae HK (2) = assay: MIC against Mycoplasma in vitro (Friis broth with agarose); format: cell-based; details: Mesomycoplasma hyopneumoniae, 144 h; M. hyopneumoniae HK (2); 6 days at 37° C; read-out: MIC
M. hyopneumoniae LABER = assay: as above; format: cell-based; details: Mesomycoplasma hyopneumoniae, 144 h; M. hyopneumoniae LABER; 6 days at 37° C; read-out: MIC
[11] = 144 h, M. hyopneumoniae NB12, 6 days at 37° C, read-out: MIC

| Compound | MIC [1] | MIC (K. aerogenes A) | MIC (Staph. aureus Russell) | MIC [2] | MIC (E. coli NCTC 10418) | MIC (Strep. faecalis I) | MIC (Staph. aureus Oxford [3]) | MIC (E. coli ESS) | MIC (Bacillus subtilis 6633) | MIC (P. mirabilis 889) | MIC (Staph. aureus W2827) | MIC [4] | MIC (Strep. agalactiae 2788-B) | MIC (Strep. spp. 64/848-C) | MIC [5] | MIC (Staph. aureus Oxford [6]) | MIC (S. dublin S7) | MIC (M. hyorhinis ATCC 23234) | MIC [7] | MIC (Past. haemolytica PA5) | also measured |
| --- | --- | --- | --- | --- | --- | --- | --- | --- | --- | --- | --- | --- | --- | --- | --- | --- | --- | --- | --- | --- | --- |
| CC(=Cc1nnc(-c2cccc(C#N)c2)o1)CC1OCC(CC2OC2C(C)C(C)O)C(O)C1O (centres unmarked) [Example 11, 2-(m-Cyanophenyl)-5-(1-normon-2-yl)-1,3,4-oxadiazole A] | 0.25 µg/mL (≈ 0.532 µM) | > 64 µg/mL | 32 µg/mL (≈ 68.2 µM) | 2 µg/mL (≈ 4.26 µM) | > 64 µg/mL | > 64 µg/mL | 8 µg/mL (≈ 17 µM) | 2 µg/mL (≈ 4.26 µM) | 2 µg/mL (≈ 4.26 µM) | > 64 µg/mL | 16 µg/mL (≈ 34.1 µM) | > 64 µg/mL | 2 µg/mL (≈ 4.26 µM) | 2 µg/mL (≈ 4.26 µM) | 0.5 µg/mL (≈ 1.06 µM) | 5 µg/mL (≈ 10.6 µM) | > 80 µg/mL | 0.1 µg/mL (≈ 0.213 µM) | 0.1 µg/mL (≈ 0.213 µM) | 10 µg/mL (≈ 21.3 µM) | MIC (Sarcina lutea 8340): > 64 µg/mL; MIC (B. subtilis ATCC 6633): 2.5 µg/mL (≈ 5.32 µM); MIC (M. hyopneumoniae NB12; NB12, 144 h): 0.25 µg/mL (≈ 0.532 µM) |
| CC(=Cc1nnnn1Cc1ccc([N+](=O)[O-])cc1)CC1OCC(CC2OC2C(C)C(C)O)C(O)C1O (centres unmarked) [Example 12, 1-(p-Nitrobenzyl)-5-(1-normon-2-yl)tetrazole A] | 10 µg/mL (≈ 19.9 µM) | > 100 µg/mL | ≥ 100 µg/mL | 5 µg/mL (≈ 9.93 µM) | > 100 µg/mL | > 100 µg/mL | 100 µg/mL (≈ 199 µM) | 100 µg/mL (≈ 199 µM) | 100 µg/mL (≈ 199 µM) | > 100 µg/mL | 100 µg/mL (≈ 199 µM) | > 100 µg/mL | 50 µg/mL (≈ 99.3 µM) | 100 µg/mL (≈ 199 µM) | 2.5 µg/mL (≈ 4.96 µM) | > 80 µg/mL | > 80 µg/mL | 5 µg/mL (≈ 9.93 µM) | 2.5 µg/mL (≈ 4.96 µM) | > 80 µg/mL | MIC [8]: 1 µg/mL (≈ 1.99 µM); MIC [9]: ≥ 100 µg/mL; MIC (Sarcina lutea 8340): ≥ 100 µg/mL; MIC [10]: 50 µg/mL (≈ 99.3 µM); MIC (Strep. pneumoniae CN33): 100 µg/mL (≈ 199 µM); MIC (M. hyopneumoniae NB12; [11]): 5 µg/mL (≈ 9.93 µM); MIC (M. hyopneumoniae HK (2)): 5 µg/mL (≈ 9.93 µM) |
| COC(=O)CCCCCCCCn1nnnc1C=C(C)CC1OCC(CC2OC2C(C)C(C)O)C(O)C1O (centres unmarked) [Example 13, 1-(8-Methoxycarbonyloctyl)-5-(1-normon-2-yl)-1H-tetrazole A] | 64 µg/mL (≈ 119 µM) | > 64 µg/mL | > 64 µg/mL | 64 µg/mL (≈ 119 µM) | > 64 µg/mL | > 64 µg/mL | > 64 µg/mL | > 64 µg/mL | > 64 µg/mL | > 64 µg/mL | > 64 µg/mL | > 64 µg/mL | > 64 µg/mL | > 64 µg/mL | 16 µg/mL (≈ 29.7 µM) | 40 µg/mL (≈ 74.3 µM) | > 80 µg/mL | > 10 µg/mL | > 10 µg/mL | > 80 µg/mL | MIC (M. hyopneumoniae LABER): > 10 µg/mL; MIC [9]: > 64 µg/mL; MIC [10]: > 64 µg/mL; MIC (Strep. pneumoniae CN33): > 64 µg/mL; MIC (M. hyopneumoniae NB12; [11]): > 10 µg/mL; MIC (M. hyopneumoniae HK (2)): > 10 µg/mL |
| CC(=Cc1nnnn1CCCCCCCCC(=O)O)CC1OCC(CC2OC2C(C)C(C)O)C(O)C1O (centres unmarked) [Example 14, Sodium 1-(8-carboxylatooctyl)-5-(1-normon-2-yl)-1H-tetrazole A] | > 128 µg/mL | > 128 µg/mL | > 128 µg/mL | 64 µg/mL | > 128 µg/mL | > 128 µg/mL | > 128 µg/mL | > 128 µg/mL | > 128 µg/mL | > 128 µg/mL | > 128 µg/mL | > 128 µg/mL | > 128 µg/mL | > 128 µg/mL | 128 µg/mL | > 80 µg/mL | > 80 µg/mL | > 10 µg/mL |  | > 80 µg/mL | MIC (M. hyopneumoniae LABER): > 10 µg/mL; MIC [9]: > 128 µg/mL; MIC [10]: > 128 µg/mL; MIC (Strep. pneumoniae CN33): > 128 µg/mL; MIC (M. hyopneumoniae NB12; [11]): > 10 µg/mL; MIC (M. hyopneumoniae HK (2)): > 10 µg/mL |
